The source of these data is patent US11065194B2, “Cosmetic use of extracts of Salvia miltiorrhiza roots, special extracts of Salvia miltiorrhiza roots and cosmetic compositions containing such extracts” (SOCIETE INDUSTRIELLE LIMOUSINE D'APPLICATION BIOLOGIQUE, priority 2018, dated 2021).

Marks after values point to notes of the source that are not given here.

One assay has as its system PGE2. Nature of the assay: Secretion of PGE2 by human keratinocytes treated with fine particles (PM), ELISA. Type of assay: cell-based. Particulars: tested at 0.5 μM. As for the experimental part:
The purpose of this study is to evaluate the capacity of an extract of Salvia miltiorrhiza roots to limit the secretion of prostaglandins E2 (PGE2) in the event of an inflammation caused by a pollutant (fine particles: PM).
This study was performed by ELISA assay on the culture supernatant of human keratinocytes subjected to a treatment with fine particles (PM) mimicking a polluted environment.
The operating protocol of the study is described below. • D0:
Normal human keratinocytes were seeded in a culture medium and incubated at 37° C. in an atmosphere containing 5% CO2. • D2: • Pre-treatment:
The keratinocytes were pretreated with or without the extract of Example 1 at 0.025% and 0.05% (V/V) or with capsazepine at 0.5 μM (inhibitor of TRPV1). The cells were then incubated for 30 minutes at 37° C. in an atmosphere containing 5% CO2. • Treatment with fine particles (PM):
The keratinocytes were treated with a solution of particles.
The cells were then incubated for 24 hours at 37° C. in an atmosphere containing 5% CO2. • D3, recovery of supernatants:
The culture supernatants were recovered and the PGE2s were assayed using an ELISA Kit (Enzo Life Sciences).
The test of Study II.2 on the secretion of PGE2 was performed on the extract and on Fraction A.
A general note: An ELISA detects its analyte on a solid surface through an enzyme-linked reagent.

A further assay concerns COX-2. As to the kind of experiment: Synthesis of COX-2 on SILABSKIN REs treated with fine particles (PM), immunohistochemistry. It counts as cell-based, human. Particulars: tested at 1 μM. The text has this: The purpose of this study is to evaluate the capacity of an extract of Salvia miltiorrhiza roots to limit the synthesis of cyclo-oxygenase 2 (COX-2) in the event of an inflammation caused by a pollutant (fine particles: PM).
The expression of COX-2 has been evaluated by immunohistochemistry on SILABSKIN® REs subjected to repeated treatments with fine particles (PM) in order to mimic a polluted environment.
Human keratinocytes were cultivated in a specific culture medium • D0: • Normal human keratinocytes were seeded on inserts then incubated at 37° C. in an atmosphere containing 5% CO2. • D2 to D13: • The culture medium was changed every 2 days. • D14 and D15, treatments of SILABSKIN® REs: • SILABSKIN® REs were treated topically with a solution of fine particles (PM), with or without the presence of the extract of Example 1 at 0.25% (V/V), or with capsazepine at […]. • D16: • The SILABSKIN® REs were recovered, fixed, dehydrated and embedded in paraffin. Sections (4 μm) were then cut using a microtome (RM2125RT, Leica).
B. Analysis of the Expression of COX-2 by Immunohistochemical Marking • Removal of paraffin with xylene • Unmasking the antigenic sites • Saturation • Primary antibody: rabbit monoclonal anti-COX-2 antibody • Secondary antibody: coupled Alexa Fluor® 488 […] antibody
The expression of COX-2 was proportional to the intensity of the green fluorescence present on the SILABSKIN® REs. A quantitative analysis of the images was performed with the aid of Matlab® version R2012b (MathWorks) software. The results were expressed in arbitrary units (UA).

Assay [1] has as its target T1, TRPV1 receptors of human sensory neurons (Homo sapiens, UniProt Q8NER1).
T1 construct: endogenous in cells; host or cells: human sensory neurons derived from hiPS cells, in co-culture with normal human keratinocytes
As to the kind of experiment: Inhibition of TRPV1 receptors of sensory neurons activated by capsaicin (cytoplasmic calcium, Fluo-4 probe). Particulars: tested at 10 μM. Type of assay: cell-based. As for the experimental part: The aim of this study is to evaluate the capacity of an extract of Salvia miltiorrhiza roots to inhibit the activity of TRPV1 (Transient receptor potential vanilloid 1) receptors of human sensory neurons that play a major role in the detection and transmission of sensations of pain and itching to the central nervous system.
This study was performed on a model of human sensory neurons derived from hiPS cells (human-induced Pluripotent Stem Cells) in co-culture with human keratinocytes. The activation of TRPV1 receptors is characterized by a massive entry of calcium into the cytoplasm of the sensory neurons that can be captured by a fluorescent probe and analyzed by epifluorescence microscopy.
The operating protocol is described below: • D0, culture of sensory neurons derived from hiPS cells: • The hiPS (human-induced Pluripotent Stem) cells are seeded in a culture medium and incubated at 37° C. • D14, placed in co-culture with normal human keratinocytes: • Some human keratinocytes are seeded onto the carpet of sensory neurons. […] This entry of calcium is captured by the Fluo-4 probe, causing an increase in the level of fluorescence in the neurons. The greater the increase in the level of fluorescence, the more the TRPV1 receptors are activated.
The average of the increase in the level of fluorescence was compared in percentage terms to the non-activated control condition.

T1 sequence (Q8NER1 whole entry): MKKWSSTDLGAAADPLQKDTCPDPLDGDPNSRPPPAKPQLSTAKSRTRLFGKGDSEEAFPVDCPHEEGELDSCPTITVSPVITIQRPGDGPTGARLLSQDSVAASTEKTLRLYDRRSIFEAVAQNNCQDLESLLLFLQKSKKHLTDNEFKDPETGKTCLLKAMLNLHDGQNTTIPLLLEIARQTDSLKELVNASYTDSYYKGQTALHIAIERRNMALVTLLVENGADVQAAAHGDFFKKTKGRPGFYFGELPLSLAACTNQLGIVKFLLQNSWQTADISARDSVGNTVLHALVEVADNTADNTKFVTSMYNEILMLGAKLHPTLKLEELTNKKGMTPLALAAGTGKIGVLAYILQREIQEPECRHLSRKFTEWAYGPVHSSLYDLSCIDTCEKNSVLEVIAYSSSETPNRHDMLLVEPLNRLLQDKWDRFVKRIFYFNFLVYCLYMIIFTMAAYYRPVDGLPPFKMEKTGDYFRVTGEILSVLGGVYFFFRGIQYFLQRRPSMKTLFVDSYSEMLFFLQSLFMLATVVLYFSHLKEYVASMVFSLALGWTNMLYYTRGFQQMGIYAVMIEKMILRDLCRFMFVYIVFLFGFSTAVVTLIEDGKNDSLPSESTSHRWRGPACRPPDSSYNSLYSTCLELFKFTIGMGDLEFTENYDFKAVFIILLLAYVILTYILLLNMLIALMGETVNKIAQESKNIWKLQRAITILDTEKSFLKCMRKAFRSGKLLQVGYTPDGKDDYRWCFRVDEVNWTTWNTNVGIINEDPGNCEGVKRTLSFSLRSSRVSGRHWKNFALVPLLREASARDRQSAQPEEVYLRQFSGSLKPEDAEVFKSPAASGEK

In the case of `Oc1cc2c(cc1O)CN(C(=S)NCCc1ccc(Cl)cc1)CCC2` [Capsazepine, capsazepine], the inhibition at 0.5 µM in the assay with PGE2 (Homo sapiens, Keratinocyte, read-out: Inhibition of the PM-caused increase in secretion of PGE2) came to 78%. In addition, the “PGE2 Content/PM-treated control” value with PGE2 is −78%. Moreover, the “PGE2 Content” value in the assay with PGE2 (keratinocytes treated with PMs) is 433* pg/mg of proteins. In the assay on COX-2, the “Inhibition of the PM-caused increase in expression of COX-2” value is given as 38% and the “Synthesis of COX-2/polluted control” value is recorded as −38%. In addition, in the assay on COX-2 (polluted SILABSKIN REs (PM)), the “Synthesis of COX-2” value is given as 659* ×10^3 UA. Further, the inhibition at 10 µM in assay [1] (capsaicin 10 μM, read-out: Inhibition of TRPV1 receptors/activated control neurons) is 199%. For the same molecule, the “Mobilization of cytoplasmic calcium” value in assay [1] (neurons activated by capsaicin 10 μM, non-activated control = 100) is recorded as 131*** %.
